pIC50: −log10 of the molar value.
Key:
[1] = biological target: Tyrosine-protein kinase BTK (Homo sapiens, UniProt Q06187); test: Inhibition of BTK (unknown origin) preincubated for 10 mins followed by kinase substrate and ATP addition and measured for 20 mins by mobility shift assay
[2] = biological target: T1, Tyrosine-protein kinase JAK3 (Homo sapiens, UniProt P52333); test: Inhibition of JAK3 (unknown origin) preincubated for 10 mins followed by kinase substrate and ATP addition and measured for 30 mins by mobility shift assay
T1 sequence (P52333 whole entry): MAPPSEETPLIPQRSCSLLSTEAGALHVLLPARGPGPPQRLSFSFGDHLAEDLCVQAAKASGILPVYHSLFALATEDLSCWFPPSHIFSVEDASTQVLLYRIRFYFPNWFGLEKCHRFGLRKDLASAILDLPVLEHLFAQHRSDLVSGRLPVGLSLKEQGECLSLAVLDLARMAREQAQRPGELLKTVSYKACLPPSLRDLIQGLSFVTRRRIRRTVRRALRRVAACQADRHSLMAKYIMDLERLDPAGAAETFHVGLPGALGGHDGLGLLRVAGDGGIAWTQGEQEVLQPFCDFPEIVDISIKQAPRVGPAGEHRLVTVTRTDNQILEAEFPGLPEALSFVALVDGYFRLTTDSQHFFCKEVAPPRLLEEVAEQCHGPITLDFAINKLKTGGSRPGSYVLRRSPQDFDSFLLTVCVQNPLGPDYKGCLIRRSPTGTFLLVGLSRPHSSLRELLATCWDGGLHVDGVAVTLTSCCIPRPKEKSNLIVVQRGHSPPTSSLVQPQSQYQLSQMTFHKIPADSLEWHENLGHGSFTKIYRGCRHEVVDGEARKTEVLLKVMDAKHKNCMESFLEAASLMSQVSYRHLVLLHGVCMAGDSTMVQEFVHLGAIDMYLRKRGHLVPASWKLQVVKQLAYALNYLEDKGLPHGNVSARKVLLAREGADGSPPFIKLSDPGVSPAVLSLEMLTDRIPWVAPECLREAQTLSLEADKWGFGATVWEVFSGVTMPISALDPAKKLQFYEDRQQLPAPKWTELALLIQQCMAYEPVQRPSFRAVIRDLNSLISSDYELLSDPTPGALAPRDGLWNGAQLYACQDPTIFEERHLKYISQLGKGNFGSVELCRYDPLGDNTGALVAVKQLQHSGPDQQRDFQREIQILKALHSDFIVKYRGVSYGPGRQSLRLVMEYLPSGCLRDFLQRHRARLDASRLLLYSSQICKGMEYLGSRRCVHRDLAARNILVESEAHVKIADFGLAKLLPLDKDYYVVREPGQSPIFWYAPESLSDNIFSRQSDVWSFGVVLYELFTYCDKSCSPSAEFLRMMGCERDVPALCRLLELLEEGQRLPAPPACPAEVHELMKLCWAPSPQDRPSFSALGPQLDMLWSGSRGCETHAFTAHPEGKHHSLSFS

[3] = Acute toxicity in po dosed ICR mouse assessed as minimum lethal dose measured for 7 days; type: organism-based; details: in vivo, 168 h, time 7 day
[4] = test system: Daudi; test: Antiproliferative activity against human Daudi cells assessed as inhibition of cell growth incubated for 72 hrs by Cell Titer-Glo assay; type: functional, cell-based
[5] = test system: BaF3; test: Antiproliferative activity against mouse BaF3 cells expressing JAK3 mutant assessed as inhibition of cell growth incubated for 72 hrs by Cell Titer-Glo assay; type: functional, cell-based; details: BaF3, 72 h

Tyrosine-protein kinase BTK, sequence (Q06187 whole entry): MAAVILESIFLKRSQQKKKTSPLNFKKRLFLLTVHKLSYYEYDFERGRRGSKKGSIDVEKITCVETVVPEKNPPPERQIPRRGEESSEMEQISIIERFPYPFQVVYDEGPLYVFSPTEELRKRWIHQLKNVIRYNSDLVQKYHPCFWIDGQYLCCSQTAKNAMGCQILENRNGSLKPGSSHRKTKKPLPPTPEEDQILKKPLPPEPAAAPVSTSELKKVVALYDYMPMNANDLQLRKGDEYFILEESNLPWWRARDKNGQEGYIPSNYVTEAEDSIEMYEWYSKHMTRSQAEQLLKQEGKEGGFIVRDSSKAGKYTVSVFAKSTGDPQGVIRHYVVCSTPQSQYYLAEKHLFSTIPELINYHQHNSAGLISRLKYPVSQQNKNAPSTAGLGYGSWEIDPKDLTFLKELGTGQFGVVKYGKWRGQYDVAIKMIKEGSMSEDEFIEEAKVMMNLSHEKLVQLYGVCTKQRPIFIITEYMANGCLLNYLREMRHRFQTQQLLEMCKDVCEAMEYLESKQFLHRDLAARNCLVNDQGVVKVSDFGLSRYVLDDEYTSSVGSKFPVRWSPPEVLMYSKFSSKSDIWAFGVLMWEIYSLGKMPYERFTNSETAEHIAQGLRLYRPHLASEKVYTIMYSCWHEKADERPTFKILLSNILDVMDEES

Row | Compound | pIC50 [1] | pIC50 [2] | MLD [3] | pIC50 [4] | pIC50 [5]
1 | C=CC(=O)N1CCC[C@@H](n2nc(-c3ccc(NC(=O)c4ccco4)c4c3OCO4)c3c(N)ncnc32)C1 | 8.83 | 6.72 |  |  | 
2 | C=CC(=O)N1CCC[C@@H](n2nc(-c3ccc(NC(=O)c4ccc(Cl)cc4)c4c3OCO4)c3c(N)ncnc32)C1 | 8.89 | 7.36 |  |  | 
3 | CCC(=O)N1CCC[C@@H](n2nc(-c3ccc(NC(=O)c4ccccc4)c4c3OCO4)c3c(N)ncnc32)C1 | 7.34 | < 5.00 |  |  | 
4 | C=CC(=O)N1CCC[C@@H](n2nc(-c3ccc(NC(=O)c4ccc(-c5ccccc5)cc4)c4c3OCO4)c3c(N)ncnc32)C1 | 8.68 | 6.92 |  |  | 
5 | C=CC(=O)N1CCC[C@@H](n2nc(-c3ccc(NC(=O)c4ccc(F)cc4)c4c3OCO4)c3c(N)ncnc32)C1 | 9.05 | 6.75 |  |  | 
6 | C=CC(=O)N1CCC[C@@H](n2nc(-c3ccc(Oc4ccccc4)cc3)c3c(N)ncnc32)C1 [IBRUTINIB] |  |  | 750 mg/kg | 6.18 | 5.85
7 | C=CC(=O)N1CCC[C@@H](n2nc(-c3ccc(NC(=O)c4sc5ccccc5c4Cl)c4c3OCO4)c3c(N)ncnc32)C1 | 8.62 | 7.52 |  |  | 
8 | C=CC(=O)N1CCC[C@@H](n2nc(-c3ccc(NC(=O)c4ccc(N(CC)CC)cc4)c4c3OCO4)c3c(N)ncnc32)C1 | 8.66 | 7.57 |  |  | 
9 | C=CC(=O)N1CCC[C@@H](n2nc(-c3ccc(NC(=O)c4cccs4)c4c3OCO4)c3c(N)ncnc32)C1 | 8.77 | 7.21 |  |  | 

The next lines start with results.

Row | pIC50 [1] | pIC50 [2] | Compound | MLD [3] | pIC50 [4] | pIC50 [5]
10 | 8.70 | 6.97 | C=CC(=O)N1CCC[C@@H](n2nc(-c3ccc(NC(=O)c4ccccc4Cl)c4c3OCO4)c3c(N)ncnc32)C1 |  |  | 
11 | 7.22 | < 5.00 | N#CCC(=O)N1CCC[C@@H](n2nc(-c3ccc(NC(=O)c4ccccc4)c4c3OCO4)c3c(N)ncnc32)C1 |  |  | 
12 | 8.74 | 7.29 | C=CC(=O)N1CCC[C@@H](n2nc(-c3ccc(NC(=O)c4ccc(C(F)(F)F)cc4)c4c3OCO4)c3c(N)ncnc32)C1 |  |  | 
13 | 7.54 | < 5.00 | C=CC(=O)Nc1cccc(Cn2nc(-c3ccc(NC(=O)c4ccccc4)c4c3OCO4)c3c(N)ncnc32)c1 |  |  | 
14 | 8.74 | 7.36 | C=CC(=O)N1CCC[C@@H](n2nc(-c3ccc(NC(=O)c4cccc(Cl)c4)c4c3OCO4)c3c(N)ncnc32)C1 |  |  | 
15 | 8.23 | 6.30 | C=CC(=O)N1CCC[C@@H](n2nc(-c3ccc(NC(=O)C45CC6CC(CC(C6)C4)C5)c4c3OCO4)c3c(N)ncnc32)C1 |  |  | 
16 | 8.99 | 7.01 | C=CC(=O)N1CCC[C@@H](n2nc(-c3ccc(NC(=O)c4cccc(N(C)C)c4)c4c3OCO4)c3c(N)ncnc32)C1 |  |  | 
